This note sets out measurements from patent publication US20250214983A1, “1,3,4-OXADIAZOLE TRIAZOLE COMPOUNDS AS HISTONE DEACETYLASE 6 INHIBITOR, AND PHARMACEUTICAL COMPOSITION COMPRISING THE SAME” (Chong Kun Dang Pharmaceutical Corp., priority 2022, published 2025).

For one assay, the target named is T1, human recombinant HDAC1 (Homo sapiens, UniProt Q13547).
T1 construct: purchased Enzo Life Science, Inc. BML-SE456
Briefly: HDAC1 enzyme activity inhibition (HDAC Fluorimetric Drug Discovery Kit). Format: biochemical. Conditions: human recombinant HDAC1, Fluor de Lys substrate 10 μM, 30° C. 60 minutes. The protocol: (§1) An experiment was conducted to identify the selectivity of the 1,3,4-oxadiazole triazole compound of the present invention to HDAC6 through an experiment on HDAC1 and HDAC6 enzyme activity inhibition.
(§2) The HDAC enzyme activity was measured with HDAC Fluorimetric Drug Discovery Kit (BML-AK511, 516) of Enzo Life Science, Inc. For the test on the HDAC1 enzyme activity, human recombinant HDAC1 (BML-SE456) was used as an enzyme source and Fluor de Lys®-“SIRT1 (BNL-KI177)” was used as a substrate. A 5-fold dilution of the compound was divided into a 96-well plate, after which 0.3 μg of the enzyme and 10 μM of the substrate were inserted into each well and subjected to reaction at 30° C. for 60 minutes, such that Fluor de Lys® Developer II (BML-KI176) was inserted thereinto and subjected to reaction for 30 minutes and finished. After that, a fluorescence value (Ex 360, Em 460) was measured with a multi-plate reader (Flexstation 3, Molecular Device). An experiment on HDAC6 enzyme was conducted in accordance with the same protocol as in the HDAC1 enzyme activity test method by using human recombinant HDAC6 (382180) of Calbiochem Inc. For final result values, each IC50 value was calculated with GraphPad Prism 4.0 program.

For another assay, the target named is T2, human recombinant HDAC6 (Homo sapiens, UniProt Q9UBN7).
T2 construct: purchased Calbiochem Inc. 382180
T2 sequence (Q9UBN7 1-1215): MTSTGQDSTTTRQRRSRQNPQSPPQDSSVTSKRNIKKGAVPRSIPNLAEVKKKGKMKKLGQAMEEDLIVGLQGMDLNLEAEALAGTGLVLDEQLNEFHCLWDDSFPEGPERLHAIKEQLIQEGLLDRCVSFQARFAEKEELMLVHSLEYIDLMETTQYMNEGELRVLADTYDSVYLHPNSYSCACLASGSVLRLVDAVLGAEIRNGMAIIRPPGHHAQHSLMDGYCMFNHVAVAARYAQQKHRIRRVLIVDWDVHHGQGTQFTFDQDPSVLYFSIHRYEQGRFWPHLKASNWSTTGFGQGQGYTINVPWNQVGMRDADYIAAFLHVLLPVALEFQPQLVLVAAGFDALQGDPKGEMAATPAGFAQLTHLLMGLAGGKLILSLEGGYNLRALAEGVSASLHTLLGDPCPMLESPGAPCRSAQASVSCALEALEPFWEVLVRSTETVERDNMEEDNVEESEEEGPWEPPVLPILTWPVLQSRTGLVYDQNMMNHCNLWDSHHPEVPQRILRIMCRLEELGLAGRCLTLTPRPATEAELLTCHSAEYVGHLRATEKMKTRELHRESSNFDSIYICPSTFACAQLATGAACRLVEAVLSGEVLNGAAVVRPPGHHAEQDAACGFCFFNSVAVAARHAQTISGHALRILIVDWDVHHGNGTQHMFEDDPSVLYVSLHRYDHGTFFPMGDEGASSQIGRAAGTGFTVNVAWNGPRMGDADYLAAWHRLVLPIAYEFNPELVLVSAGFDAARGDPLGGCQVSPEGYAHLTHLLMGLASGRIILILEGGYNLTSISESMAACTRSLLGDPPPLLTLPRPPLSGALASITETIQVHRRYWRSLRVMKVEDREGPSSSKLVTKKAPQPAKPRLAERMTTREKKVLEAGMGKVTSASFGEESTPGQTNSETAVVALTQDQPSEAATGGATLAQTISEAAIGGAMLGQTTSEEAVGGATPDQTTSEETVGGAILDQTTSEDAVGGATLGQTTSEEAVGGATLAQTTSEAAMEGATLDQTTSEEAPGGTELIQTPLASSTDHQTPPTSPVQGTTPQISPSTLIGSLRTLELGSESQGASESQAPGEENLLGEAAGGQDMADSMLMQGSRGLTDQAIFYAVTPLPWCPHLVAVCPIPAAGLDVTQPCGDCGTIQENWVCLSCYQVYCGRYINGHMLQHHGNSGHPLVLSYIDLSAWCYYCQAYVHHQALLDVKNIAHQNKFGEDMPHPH
As to the kind of experiment: HDAC6 enzyme activity inhibition (HDAC Fluorimetric Drug Discovery Kit). Format: biochemical. As to conditions: HDAC1 versus HDAC6. As for the experimental part:
as §1, §2

As usually defined, the IC50 is the concentration that gives 50% inhibition.

T1 sequence (Q13547 whole entry): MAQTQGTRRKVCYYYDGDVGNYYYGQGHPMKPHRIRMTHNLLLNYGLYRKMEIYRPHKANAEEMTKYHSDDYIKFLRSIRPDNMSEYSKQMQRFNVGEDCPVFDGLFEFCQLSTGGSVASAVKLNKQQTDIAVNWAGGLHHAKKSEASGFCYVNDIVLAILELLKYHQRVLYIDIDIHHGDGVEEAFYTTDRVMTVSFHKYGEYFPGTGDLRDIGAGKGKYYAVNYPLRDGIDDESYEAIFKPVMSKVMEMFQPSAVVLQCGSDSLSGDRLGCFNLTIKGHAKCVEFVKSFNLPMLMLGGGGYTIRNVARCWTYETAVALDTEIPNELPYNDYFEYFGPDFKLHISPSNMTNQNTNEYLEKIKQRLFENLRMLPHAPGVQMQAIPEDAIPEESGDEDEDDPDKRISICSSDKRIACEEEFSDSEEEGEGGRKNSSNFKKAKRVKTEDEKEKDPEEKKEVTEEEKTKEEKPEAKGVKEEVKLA

With `FC(F)c1nnc(-c2ccc(Cn3cc(-c4ccc(CN5CCC5)cn4)nn3)nc2)o1` [Compound 2, 2-(6-((4-(5-(azetidin-1-ylmethyl)pyridin-2-yl)-1H-1,2,3-triazol-1-yl)methyl)pyridin-3-yl)-5-(difluoromethyl)-1,3,4-oxadiazole], on human recombinant HDAC1, the IC50 is more than 50 µM. Besides, the “HDAC6 selectivity (fold)” value at human recombinant HDAC6 stood at 2252 fold.

For `FC(F)c1nnc(-c2ccc(Cn3cc(-c4ccc(CN5CCCC5)cn4)nn3)nc2)o1` [Compound 3, 2-(difluoromethyl)-5-(6-((4-(5-(pyrrolidin-1-ylmethyl)pyridin-2-yl)-1H-1,2,3-triazol-1-yl)methyl)pyridin-3-yl)-1,3,4-oxadiazole], the IC50 on human recombinant HDAC1 was more than 50 µM. On human recombinant HDAC6, the “HDAC6 selectivity (fold)” value was found to be 1712 fold.

With `CC1CCN(Cc2ccc(-c3cn(Cc4ccc(-c5nnc(C(F)F)o5)cn4)nn3)nc2)CC1` [Compound 4, 2-(difluoromethyl)-5-(6-((4-(5-((4-methylpiperidin-1-yl)methyl)pyridin-2-yl)-1H-1,2,3-triazol-1-yl)methyl)pyridin-3-yl)-1,3,4-oxadiazole], the IC50 at human recombinant HDAC1 was more than 50 µM. In addition, the “HDAC6 selectivity (fold)” value on human recombinant HDAC6 worked out at 1428 fold.

For `FC(F)c1nnc(-c2ccc(Cn3cc(-c4ccc(CN5CC[C@@H](F)C5)nc4)nn3)nc2)o1` [Compound 5, (R)-2-(difluoromethyl)-5-(6-((4-(6-((3-fluoropyrrolidin-1-yl)methyl)pyridin-3-yl)-1H-1,2,3-triazol-1-yl)methyl)pyridin-3-yl)-1,3,4-oxadiazole], the IC50 on human recombinant HDAC1 was more than 50 µM. The “HDAC6 selectivity (fold)” value at human recombinant HDAC6 was 1547 fold.

`CC1(C)CCN(Cc2ccc(-c3cn(Cc4ccc(-c5nnc(C(F)F)o5)cn4)nn3)cn2)CC1` [Compound 6, 2-(difluoromethyl)-5-(6-((4-(6-((4,4-dimethylpiperidin-1-yl)methyl)pyridin-3-yl)-1H-1,2,3-triazol-1-yl)methyl)pyridin-3-yl)-1,3,4-oxadiazole]: the IC50 at human recombinant HDAC1 was more than 50 µM. Besides, at human recombinant HDAC6, the “HDAC6 selectivity (fold)” value was 1730 fold.

With `FC(F)c1nnc(-c2ccc(Cn3cc(-c4ccc(CN5CC[C@H](F)C5)s4)nn3)nc2)o1` [Compound 7, (S)-2-(difluoromethyl)-5-(6-((4-(5-((3-fluoropyrrolidin-1-yl)methyl)thiophen-2-yl)-1H-1,2,3-triazol-1-yl)methyl)pyridin-3-yl)-1,3,4-oxadiazole], the IC50 at human recombinant HDAC1 is more than 50 µM. Further, on human recombinant HDAC6, the “HDAC6 selectivity (fold)” value stood at 1253 fold.

`FC(F)c1nnc(-c2ccc(Cn3cc(-c4ccc(CN5CC[C@@H](F)C5)s4)nn3)nc2)o1` [Compound 8, (R)-2-(difluoromethyl)-5-(6-((4-(5-((3-fluoropyrrolidin-1-yl)methyl)thiophen-2-yl)-1H-1,2,3-triazol-1-yl)methyl)pyridin-3-yl)-1,3,4-oxadiazole]: the half-inhibitory concentration (IC50) on human recombinant HDAC1 is more than 50 µM. In addition, the “HDAC6 selectivity (fold)” value at human recombinant HDAC6 was found to be 1048 fold.

For `CN(C)Cc1cc(-c2cn(Cc3ccc(-c4nnc(C(F)F)o4)cn3)nn2)cs1` [Compound 11, 1-(4-(1-((5-(5-(difluoromethyl)-1,3,4-oxadiazol-2-yl)pyridin-2-yl)methyl)-1H-1,2,3-triazol-4-yl)thiophen-2-yl)-N,N-dimethylmethanamine], on human recombinant HDAC1, the IC50 is more than 50 µM. Besides, the “HDAC6 selectivity (fold)” value on human recombinant HDAC6 amounted to 1577 fold.

Take `FC(F)c1nnc(-c2ccc(Cn3cc(-c4csc(CN5CC[C@H](F)C5)c4)nn3)nc2)o1` [Compound 13, (S)-2-(difluoromethyl)-5-(6-((4-(5-((3-fluoropyrrolidin-1-yl)methyl)thiophen-3-yl)-1H-1,2,3-triazol-1-yl)methyl)pyridin-3-yl)-1,3,4-oxadiazole]: the IC50 at human recombinant HDAC1 was more than 50 µM. For the same compound, the “HDAC6 selectivity (fold)” value on human recombinant HDAC6 came out at 1893 fold.

With `FC(F)c1nnc(-c2ccc(Cn3cc(-c4csc(CN5CC[C@@H](F)C5)c4)nn3)nc2)o1` [Compound 14, (R)-2-(difluoromethyl)-5-(6-((4-(5-((3-fluoropyrrolidin-1-yl)methyl)thiophen-3-yl)-1H-1,2,3-triazol-1-yl)methyl)pyridin-3-yl)-1,3,4-oxadiazole], the IC50 at human recombinant HDAC1 was more than 50 µM. Further, at human recombinant HDAC6, the “HDAC6 selectivity (fold)” value was determined as 1811 fold.

Consider `FC(F)c1nnc(-c2ccc(Cn3cc(-c4csc(CN5CCC(F)(F)CC5)c4)nn3)nc2)o1` [Compound 16, 2-(difluoromethyl)-5-(6-((4-(5-((4,4-difluoropiperidin-1-yl)methyl)thiophen-3-yl)-1H-1,2,3-triazol-1-yl)methyl)pyridin-3-yl)-1,3,4-oxadiazole], for which the IC50 on human recombinant HDAC1 was more than 50 µM. Moreover, at human recombinant HDAC6, the “HDAC6 selectivity (fold)” value came out at 1237 fold.

Consider `CC1(C)CCN(Cc2ccc(-c3cn(Cc4ccc(-c5nnc(C(F)F)o5)cn4)nn3)nc2)CC1` [Compound 17, 2-(difluoromethyl)-5-(6-((4-(5-((4,4-dimethylpiperidin-1-yl)methyl)pyridin-2-yl)-1H-1,2,3-triazol-1-yl)methyl)pyridin-3-yl)-1,3,4-oxadiazole], for which the IC50 on human recombinant HDAC1 is more than 50 µM. Also, at human recombinant HDAC6, the “HDAC6 selectivity (fold)” value came to 1466 fold.

Regarding `Fc1ccc(CN2CCCCC2)cc1-c1cn(Cc2ccc(-c3nnc(C(F)F)o3)cn2)nn1` [Compound 18, 2-(difluoromethyl)-5-(6-((4-(2-fluoro-5-(piperidin-1-ylmethyl)phenyl)-1H-1,2,3-triazol-1-yl)methyl)pyridin-3-yl)-1,3,4-oxadiazole], at human recombinant HDAC1, the IC50 was more than 50 µM. Also, the “HDAC6 selectivity (fold)” value on human recombinant HDAC6 is reported as 1845 fold.

For the compound `CC1CCN(Cc2ccc(F)c(-c3cn(Cc4ccc(-c5nnc(C(F)F)o5)cn4)nn3)c2)CC1` [Compound 19, 2-(difluoromethyl)-5-(6-((4-(2-fluoro-5-((4-methylpiperidin-1-yl)methyl)phenyl)-1H-1,2,3-triazol-1-yl)methyl)pyridin-3-yl)-1,3,4-oxadiazole], on human recombinant HDAC1, the IC50 was more than 50 µM. In addition, the “HDAC6 selectivity (fold)” value on human recombinant HDAC6 was 1492 fold.

Turning to `CN(C)Cc1ccc(F)c(-c2cn(Cc3ccc(-c4nnc(C(F)F)o4)cn3)nn2)c1` [Compound 20, 1-(3-(1-((5-(5-(difluoromethyl)-1,3,4-oxadiazol-2-yl)pyridin-2-yl)methyl)-1H-1,2,3-triazol-4-yl)-4-fluorophenyl)-N,N-dimethylmethanamine], the IC50 on human recombinant HDAC1 is more than 50 µM. In addition, the “HDAC6 selectivity (fold)” value at human recombinant HDAC6 was determined as 1798 fold.

Turning to `Fc1ccc(-c2cn(Cc3ccc(-c4nnc(C(F)F)o4)cn3)nn2)cc1CN1CCCC1` [Compound 22, 2-(difluoromethyl)-5-(6-((4-(4-fluoro-3-(pyrrolidin-1-ylmethyl)phenyl)-1H-1,2,3-triazol-1-yl)methyl)pyridin-3-yl)-1,3,4-oxadiazole], the IC50 at human recombinant HDAC1 was more than 50 µM. The “HDAC6 selectivity (fold)” value on human recombinant HDAC6 came out at 3401 fold.

Take `CN(C)Cc1cc(-c2cn(Cc3ccc(-c4nnc(C(F)F)o4)cn3)nn2)ccc1F` [Compound 23, 1-(5-(1-((5-(5-(difluoromethyl)-1,3,4-oxadiazol-2-yl)pyridin-2-yl)methyl)-1H-1,2,3-triazol-4-yl)-2-fluorophenyl)-N,N-dimethylmethanamine]: the concentration for half-maximal inhibition (IC50) at human recombinant HDAC1 was more than 50 µM. At human recombinant HDAC6, the “HDAC6 selectivity (fold)” value is 2702 fold.

Take `Fc1ccc(-c2cn(Cc3ccc(-c4nnc(C(F)F)o4)cn3)nn2)cc1CN1CCCCC1` [Compound 24, 2-(difluoromethyl)-5-(6-((4-(4-fluoro-3-(piperidin-1-ylmethyl)phenyl)-1H-1,2,3-triazol-1-yl)methyl)pyridin-3-yl)-1,3,4-oxadiazole]: the IC50 on human recombinant HDAC1 was more than 50 µM. The “HDAC6 selectivity (fold)” value at human recombinant HDAC6 stood at 2577 fold.
